Assay results published in patent US7521540B2, “CYR61 compositions and methods” (Munin Corporation, priority 1996, dated 2009).

How the values were obtained:
[1] = system: Human Microvascular Endothelial Cells; assay: Endothelial cell migration, inverted modified Boyden chamber; type: cell-based; conditions: 0.01-10 μg/ml
Method: In an alternative in vitro assay for angiogenic activity, an assay for endothelial cell migration was developed. […] Primary Human Microvascular Endothelial Cells (HMVEC PO51, Clonetics, San Diego, Calif.) were maintained in DME with 10% donor calf serum (Flow Laboratories, McLean, Va.) and 100 μg/ml endothelial celi mitogen (Biomedical Technologies Inc., Stoughton, Mass.). The cells were used between passages 10 and 15. To measure migration, cells were starved for 24 hours in DME containing 0.1% BSA, harvested, resuspended in DME with 0.1% BSA, and plated at 1.75×10^4 cells/well on the lower surface of a gelatinized 0.5 μm filter (Nucleopore Corporation, Pleasanton. Calif.) in an inverted modified Boyden chamber. After 1-2 hours at 37° C., during which time the cells were allowed to adhere to the filter, the chamber was reverted to its normal position. […] Chambers were disassembled, membranes fixed and stained, and the number of cells that had migrated to the top of the filter in 3 high-powered fields was determined. […]
To allow comparison of experiments performed on different days, migration data is reported as the percent of maximum migration towards the positive control, calculated after subtraction of background migration observed in the presence of DME plus BSA. […] Detachment was detected by counting cells on the lower face of the membrane. […]

cornea = assay: Cornea assay for angiogenic factors; type: in vivo, rat; conditions: FGF 0.15 μM (six animals); Cyr61 1 μg/ml (seven animals)
Text: Another assay for modulators of angiogenesis is an in vivo assay for assessing the effect of a suspected modulator in the presence of an ECM signaling molecule-related biomaterial, such as Cyr61, on angiogenesis is the Cornea Assay. The Cornea Assay takes advantage of the absence of blood vessels in the cornea, which in the presence of an angiogenic factor, results in the detectable development of capillaries extending from the sclera into the cornea. Friedlander et al., Science 270:1500-1502 (1995). This ingrowth of new blood vessels from the sclera can be microscopically monitored. Further, the visually determined rate of migration can be used to assess changes in the rate of angiogenesis. […] Subsequently, eyes containing implants are visually observed for growth of the readily visible blood vessels within the eye. […]
Although rats of various sizes can be used in the cornea assay, a preferred size for the rats is 150-200 g/animal. […] Once the cornea pocket is made, the spatula is removed and the distance between the limbus and base of the pocket is measured to make sure the separation is at least about 1 mm. […]
Following surgery, animals are examined daily for seven days with the aid of a stereomicroscope to check for inflammation and responses. […] During this seven day period, animals are monitored for implant position and corneal exudate. […]

For “bFGF: Growth factor used as positive control [reference compound]”, the “migrated cells per three high-powered microscope fields” value [1] was 92 cells and the “eyes showing blood vessel growth after seven days” value (cornea) was “all six”.
